Measurements taken from patent publication US20250122191A1, “COMPOUNDS AS BCL-2 INHIBITORS” (Fochon Biosciences, Ltd, priority 2021, published 2025).

Tested on: RS4;11-BCL-2 D103E cells
Experiment: Cell proliferation assay (MTS), RS4;11-BCL-2 D103E engineered cells
Type: cell-based
Conditions: Homo sapiens, 72 h, read-out: RS4, 11 BCL2-D103E IC50
Text: MTS testing kit was purchased from Promega (Madison, WI, USA). The RPMI-1640, Fetal bovine serum and Penicillin-Streptomycin were purchased from BI (Biological Industries, Beit Haemek, Israel). Puromycin was purchased from Beyotime (shanghai, China). Dimethyl sulfoxide (DMSO) was purchased from Sigma (St. Louis., MO, USA). RS4;11-BCL-2 G101V (Cobioer Lot. #: CBD2021063013P4), RS4;11-BCL-2 D103E (Cobioer Lot. #: CBD2021063013P4), RS4;11-BCL-2 D103Y (Cobioer Lot. #: CBD2022012101P4) and RS4;11-BCL-2 F104L (Cobioer Lot. #: CBD2021063014P4) cells were cultured in RPMI1640 supplemented with 1 ug/mL puromycin, 100 U/mL Penicillin-Streptomycin and 10% FBS.
To investigate whether a compound is able to inhibit the activity of BCL-2 mutation in cells, a mechanism-based assay using engineered cell lines stably overexpressing BCL-2 mutation (RS4;11-BCL-2 G101V, RS4;11-BCL-2 D103E, RS4;11-BCL-2 D103Y, and RS4;11-BCL-2 F104L) was developed. In this assay, the inhibition of BCL-2 mutation was reflected by the inhibition of cell proliferation of engineered RS4;11 cells. Cells were plated into 96-well plates at optimized cell density (RS4;11-BCL-2 G101V: 5000 cells/well; RS4;11-BCL-2 D103E: 7500 cells/well; RS4;11-BCL-2 D103Y: 7500 cells/well; RS4;11-BCL-2 F104L: 5000 cells/well). Plates were incubated at 37° C., with 5% CO2 for 4 h (RS4;11-BCL-2 G101V, RS4;11-BCL-2 F104L) and 24 h (RS4;11-BCL-2 D103E, RS4;11-BCL-2 D103Y), respectively. Compounds were serially diluted and added to the plates with the final concentrations of 10000, 3333.3, 1111.1, 370.4, 123.5, 41.2, 13.7, 4.6 and 1.5 nM. Plates were incubated at 37° C., with 5% CO2 for 120 h (RS4; 11-BCL-2 G101V, RS4; 11-BCL-2 F104L) and 72 h (RS4;11-BCL-2 D103E, RS4;11-BCL-2 D103Y), respectively. 20 μl MTS was added into each well and the plates were incubated at 37° C., with 5% CO2 exactly for 2 h. The absorbance was measured by a microplate reader at 490 nm. IC50 values were calculated using GraphPad Prism 8.0 software.

IC50	SMILES
1 nM	COc1nc2[nH]cc(F)c2cc1Oc1cc(N2CCC3(CC2)CC(N2CCN(C4CCC(O)CC4)C[C@H]2c2ccccc2C(C)C)C3)ccc1C(=O)NS(=O)(=O)c1cnc(NC[C@H]2CC[C@](C)(O)CC2)c([N+](=O)[O-])c1 (single isomer, unassigned) [Example 331]
1 nM	COc1nc2[nH]cc(F)c2cc1Oc1cc(N2CCC3(CC2)CC(N2CCN(Cc4ccnc(C(C)(F)F)c4)C[C@H]2c2ccccc2C(C)C)C3)ccc1C(=O)NS(=O)(=O)c1cnc(NC[C@H]2CC[C@](C)(O)CC2)c([N+](=O)[O-])c1 [Example 149, 4-(2-((R)-4-((2-(1,1-difluoroethyl)pyridin-4-yl)methyl)-2-(2-isopropylphenyl)piperazin-1-yl)-7-azaspiro[3.5]nonan-7-yl)-2-((3-fluoro-6-methoxy-1H-pyrrolo[2,3-b]pyridin-5-yl)oxy)-N-((6-((((1r,4r)-4-hydroy-4-methylcyclohexyl)methyl)amino)-5-nitropyridin-3-yl)sulfonyl)benzamide]
1 nM	[2H]C([2H])([2H])Oc1cc(CN2CCN(C3CC4(CCN(c5ccc(C(=O)NS(=O)(=O)c6cnc(NC[C@H]7CC[C@](C)(O)CC7)c([N+](=O)[O-])c6)c(Oc6cc7c(F)c[nH]c7nc6OC)c5)CC4)C3)[C@H](c3ccccc3C(C)C)C2)ccn1 [Example 164, 2-((3-fluoro-6-methoxy-1H-pyrrolo[2,3-b]pyridin-5-yl)oxy)-N-((6-((((1r,4r)-4-hydroxy-4-methylcyclohexyl)methyl)amino)-5-nitropyridin-3-yl)sulfonyl)-4-(2-((R)-2-(2-isopropylphenyl)-4-((2-(methoxy-d3)pyridin-4-yl)methyl)piperazin-1-yl)-7-azaspiro[3.5]nonan-7-yl)benzamide]
1 nM	COc1nccc(CN2CCN(C3CC4(CCN(c5ccc(C(=O)NS(=O)(=O)c6cnc(NC[C@H]7CC[C@](C)(O)CC7)c([N+](=O)[O-])c6)c(Oc6cc7c(F)c[nH]c7nc6OC)c5)CC4)C3)[C@H](c3ccccc3C(C)C)C2)n1 [Example 165, 2-((3-fluoro-6-methoxy-1H-pyrrolo[2,3-b]pyridin-5-yl)oxy)-N-((6-((((1r,4r)-4-hydroxy-4-methylcyclohexyl)methyl)amino)-5-nitropyridin-3-yl)sulfonyl)-4-(2-((R)-2-(2-isopropylphenyl)-4-((2-methoxypyrimidin-4-yl)methyl)piperazin-1-yl)-7-azaspiro[3.5]nonan-7-yl)benzamide]
1 nM	COc1nc2[nH]cc(F)c2cc1Oc1cc(N2CCC3(CC2)CC(N2CCN(Cc4ccnc5c4OCO5)C[C@H]2c2ccccc2C(C)C)C3)ccc1C(=O)NS(=O)(=O)c1cnc(NC[C@H]2CC[C@](C)(O)CC2)c([N+](=O)[O-])c1 [Example 189, 4-(2-((R)-4-([1,3]dioxolo[4,5-b]pyridin-7-ylmethyl)-2-(2-isopropylphenyl)piperazin-1-yl)-7-azaspiro[3.5]nonan-7-yl)-2-((3-fluoro-6-methoxy-1H-pyrrolo[2,3-b]pyridin-5-yl)oxy)-N-((6-((((1r,4r)-4-hydroxy-4-methylcyclohexyl)methyl)amino)-5-nitropyridin-3-yl)sulfonyl)benzamide]
1 nM	COc1nc2[nH]cc(F)c2cc1Oc1cc(N2CCC3(CC2)CC(N2CCN(Cc4ccnc5c4OCCO5)C[C@H]2c2ccccc2C(C)C)C3)ccc1C(=O)NS(=O)(=O)c1cnc(NC[C@H]2CC[C@](C)(O)CC2)c([N+](=O)[O-])c1 [Example 191, 4-(2-((R)-4-((2,3-dihydro-[1,4]dioxino[2,3-b]pyridin-8-yl)methyl)-2-(2-isopropylphenyl)piperazin-1-yl)-7-azaspiro[3.5]nonan-7-yl)-2-((3-fluoro-6-methoxy-1H-pyrrolo[2,3-b]pyridin-5-yl)oxy)-N-((6-((((1r,4r)-4-hydroxy-4-methylcyclohexyl)methyl)amino)-5-nitropyridin-3-yl)sulfonyl)benzamide]
1 nM	COc1nc2[nH]cc(F)c2cc1Oc1cc(N2CCC3(CC2)CC(N2CCN(Cc4ccnc5c4OC(C)CN5)C[C@H]2c2ccccc2C(C)C)C3)ccc1C(=O)NS(=O)(=O)c1cnc(NC[C@H]2CC[C@](C)(O)CC2)c([N+](=O)[O-])c1 (stereo partly drawn) [Example 196, 2-((3-fluoro-6-methoxy-1H-pyrrolo[2,3-b]pyridin-5-yl)oxy)-N-((6-((((1r,4r)-4-hydroxy-4-methylcyclohexyl)methyl)amino)-5-nitropyridin-3-yl)sulfonyl)-4-(2-((2R)-2-(2-isopropylphenyl)-4-((2-methyl-3,4-dihydro-2H-pyrido[3,2-b][1,4]oxazin-8-yl)methyl)piperazin-1-yl)-7-azaspiro[3.5]nonan-7-yl)benzamide]
1 nM	COc1nc2[nH]cc(F)c2cc1Oc1cc(N2CCC3(CC2)CC(N2CCN(Cc4ccnc(O)c4)C[C@H]2c2ccccc2C(C)C)C3)ccc1C(=O)NS(=O)(=O)c1cnc(NC[C@H]2CC[C@](C)(O)CC2)c([N+](=O)[O-])c1 [Example 199, 2-((3-fluoro-6-methoxy-1H-pyrrolo[2,3-b]pyridin-5-yl)oxy)-N-((6-((((1r,4r)-4-hydroxy-4-methylcyclohexyl)methyl)amino)-5-nitropyridin-3-yl)sulfonyl)-4-(2-((R)-4-((2-hydroxypyridin-4-yl)methyl)-2-(2-isopropylphenyl)piperazin-1-yl)-7-azaspiro[3.5]nonan-7-yl)benzamide]
2 nM	COc1cc(CN2CCN(C3CC4(CCN(c5ccc(C(=O)NS(=O)(=O)c6cnc(OC[C@H]7CC[C@](C)(O)CC7)c([N+](=O)[O-])c6)c(Oc6cc7c(F)c[nH]c7nc6OC)c5)CC4)C3)[C@H](c3ccccc3C(C)C)C2)ccn1 [Example 261, 2-((3-fluoro-6-methoxy-1H-pyrrolo[2,3-b]pyridin-5-yl)oxy)-N-((6-(((1r,4r)-4-hydroxy-4-methylcyclohexyl)methoxy)-5-nitropyridin-3-yl)sulfonyl)-4-(2-((R)-2-(2-isopropylphenyl)-4-((2-methoxypyridin-4-yl)methyl)piperazin-1-yl)-7-azaspiro [3.5]nonan-7-yl)benzamide]
1 nM	COC1CCC(N2CCN(C3CC4(CCN(c5ccc(C(=O)NS(=O)(=O)c6cnc(NC[C@H]7CC[C@](C)(O)CC7)c([N+](=O)[O-])c6)c(Oc6cnc7[nH]cc(F)c7c6)c5)CC4)C3)[C@H](c3ccccc3C(C)C)C2)CC1 (stereo partly drawn) [Example 326, 2-((3-fluoro-1H-pyrrolo[2,3-b]pyridin-5-yl)oxy)-N-((6-((((1r,4r)-4-hydroxy-4-methylcyclohexyl)methyl)amino)-5-nitropyridin-3-yl)sulfonyl)-4-(2-((R)-2-(2-isopropylphenyl)-4-(4-methoxycyclohexyl)piperazin-1-yl)-7-azaspiro[3.5]nonan-7-yl)benzamide]
